Results as given in patent US9267116B2, “Amino acid dehydrogenase, and process for producing L-amino acid, 2-oxo acid or D-amino acid” (KANEKA CORPORATION, priority 2008, dated 2016).

Columns and labels:
amino acid dehydrogenase = assay: Substrate specificity of the purified amino acid dehydrogenase (reductive amination of 2-oxo acids); assay type: biochemical, Rhodococcus qingshengii strain KNK2108; conditions: activity for phenylpyruvic acid = 100%; 30° C., pH 9.0; naphthylpyruvic and indolepyruvic acid by HPLC of the product formed in 30 minutes
Method: In the embodiments, the amino acid dehydrogenase activity of the polypeptide can be measured, for example, based on the rate of decline in the absorbance at a wavelength of 340 nm when 1.2 mL of 0.5 M NH3/NH4Cl buffer (pH 9.0), 0.2 mL of 0.1 M sodium carbonate buffer (pH 9.0) containing 3 mM NADH coenzyme, and 0.1 mL of an appropriately diluted enzyme solution are added to 1.5 mL of 0.1 M sodium carbonate buffer (pH 9.0) containing 10 mM phenylpyruvic acid as substrate and a reaction is run for 1 minute at 30° C. In the embodiments, the amino acid dehydrogenase activity was measured using this method unless indicated otherwise.
The activity of the amino acid dehydrogenase was measured based on the rate of decline in the absorbance at a wavelength of 340 nm when 1.2 mL of 0.5 M NH3/NH4Cl buffer (pH 9.0), 0.2 mL of 0.1 M sodium carbonate buffer (pH 9.0) that contained 3 mM NADH coenzyme, and 0.1 mL of the appropriately diluted enzyme solution were added to 1.5 mL of 0.1 M sodium carbonate buffer (pH 9.0) that contained 10 mM phenylpyruvic acid substrate and a reaction was carried out for 1 minute at 30° C. 1 unit is defined here as the quantity of enzyme that consumed 1 μmol NADH in 1 minute. The protein was quantified by the Bradford method using BSA as the reference protein.
The substrate specificity of the purified amino acid dehydrogenase was investigated. The enzyme activity was measured by using each substrate in place of the phenylpyruvic acid substrate in the procedure previously described for measuring the enzyme activity. In the case of the enzyme activity for naphthylpyruvic acid, 100 μL of the appropriately diluted enzyme solution was added to 100 μL of 0.1 M sodium carbonate buffer (pH 9.0) that contained 1.0 mg naphthylpyruvic acid, 12.3 mg ammonium sulfate, and 6.1 mg NADH and the increment in the 2-naphthylalanine produced in 30 minutes at 30° C. was determined by quantitation by HPLC. The HPLC analysis was run using the following: column: COSMOSIL 5C18-ARII (4.6 mm×250 mm, Nacalai Tesque, Inc.), eluent: 10 mM potassium phosphate buffer (pH 2.0)/acetonitrile=5/1, flow rate: 1.0 mL/min, column temperature: 40° C., detection: 210 nm. Here, 1 unit is defined as the quantity of enzyme that produces 1 μmol 2-naphthylalanine in 1 minute. In the case of the enzyme activity for indolepyruvic acid, 100 μL of the appropriately diluted enzyme solution was added to 100 μL of 0.1 M sodium carbonate buffer (pH 9.0) that contained 2.0 mg indolepyruvic acid, 26.0 mg ammonium sulfate, and 7.6 mg NADH and the increment in the L-tryptophan produced in 30 minutes at 30° C. was determined by quantitation by HPLC. The HPLC analysis was run using the following: column: CROWNPAK CR—(4.6 mm×150 mm, Daicel Chemical Industries, Ltd.), eluent: aqueous HClO4 (pH 2.0), flow rate: 1.0 mL/min, column temperature: 30° C., detection: 210 nm. Here, 1 unit is defined as the quantity of enzyme that produces 1 μmol L-tryptophan in 1 minute.

[1] = tested on: Rhodococcus maris-derived phenylalanine dehydrogenase; conditions: cited from earlier work
[2] = biological target: Rhodococcus sp.-derived phenylalanine dehydrogenase (Rhodococcus sp, UniProt Q59771); conditions: cited from earlier work
Sequence of Rhodococcus sp.-derived phenylalanine dehydrogenase (Q59771 whole entry): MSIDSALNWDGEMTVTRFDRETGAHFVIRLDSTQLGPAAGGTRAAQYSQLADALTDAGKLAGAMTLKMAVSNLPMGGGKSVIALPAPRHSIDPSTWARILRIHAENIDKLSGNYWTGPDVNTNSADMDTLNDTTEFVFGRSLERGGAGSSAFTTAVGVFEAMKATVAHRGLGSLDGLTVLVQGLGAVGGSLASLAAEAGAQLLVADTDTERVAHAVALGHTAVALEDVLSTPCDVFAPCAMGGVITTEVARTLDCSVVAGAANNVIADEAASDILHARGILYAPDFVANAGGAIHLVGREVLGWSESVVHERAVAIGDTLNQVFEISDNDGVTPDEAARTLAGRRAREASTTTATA

[3] = biological target: Thermoactinomyces intermedius-derived phenylalanine dehydrogenase (Thermoactinomyces intermedius, UniProt P22823); conditions: cited from earlier work
Sequence of Thermoactinomyces intermedius-derived phenylalanine dehydrogenase (P22823 whole entry): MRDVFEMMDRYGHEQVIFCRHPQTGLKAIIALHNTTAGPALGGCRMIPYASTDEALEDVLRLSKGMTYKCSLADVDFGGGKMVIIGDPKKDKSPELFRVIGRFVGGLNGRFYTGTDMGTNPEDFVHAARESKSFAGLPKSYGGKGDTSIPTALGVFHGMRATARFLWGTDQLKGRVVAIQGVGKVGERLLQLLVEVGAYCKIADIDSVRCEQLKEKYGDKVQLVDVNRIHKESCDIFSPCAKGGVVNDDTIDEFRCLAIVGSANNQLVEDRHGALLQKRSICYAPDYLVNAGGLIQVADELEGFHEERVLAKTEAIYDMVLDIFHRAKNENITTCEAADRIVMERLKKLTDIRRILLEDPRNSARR

[4] = biological target: Bacillus sphaericus-derived phenylalanine dehydrogenase (Lysinibacillus sphaericus, UniProt P23307); conditions: cited from earlier work
Sequence of Bacillus sphaericus-derived phenylalanine dehydrogenase (P23307 whole entry): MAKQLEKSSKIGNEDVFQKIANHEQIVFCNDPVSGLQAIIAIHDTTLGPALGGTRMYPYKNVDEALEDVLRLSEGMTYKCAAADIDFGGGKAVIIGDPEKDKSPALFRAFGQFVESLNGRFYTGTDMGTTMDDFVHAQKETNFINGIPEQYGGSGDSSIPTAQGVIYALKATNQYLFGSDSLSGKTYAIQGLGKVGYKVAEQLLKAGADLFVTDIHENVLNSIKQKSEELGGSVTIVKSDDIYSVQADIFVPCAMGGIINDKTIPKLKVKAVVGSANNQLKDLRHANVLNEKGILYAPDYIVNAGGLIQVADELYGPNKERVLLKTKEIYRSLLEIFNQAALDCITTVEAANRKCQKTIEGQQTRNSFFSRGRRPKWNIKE

[5] = tested on: Microbacterium sp.-derived phenylalanine dehydrogenase; conditions: cited from earlier work
[6] = biological target: T1, Sporosarcina ureae-derived phenylalanine dehydrogenase (Sporosarcina ureae, UniProt P97014); conditions: cited from earlier work
T1 sequence (P97014 1-379): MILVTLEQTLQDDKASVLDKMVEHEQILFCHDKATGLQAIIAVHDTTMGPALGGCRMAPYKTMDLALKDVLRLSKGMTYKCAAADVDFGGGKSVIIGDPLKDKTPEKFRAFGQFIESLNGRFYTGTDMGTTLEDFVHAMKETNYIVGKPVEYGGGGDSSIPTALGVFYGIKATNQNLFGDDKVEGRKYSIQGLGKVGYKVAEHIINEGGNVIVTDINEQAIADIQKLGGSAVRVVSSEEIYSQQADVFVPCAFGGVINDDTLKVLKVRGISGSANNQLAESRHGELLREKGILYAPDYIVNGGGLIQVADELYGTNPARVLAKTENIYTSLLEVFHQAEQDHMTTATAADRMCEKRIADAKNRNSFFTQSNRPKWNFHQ

CSCCC(=O)C(=O)O [2-Oxo-4-(methylthio)butanoic acid]
Relative activity (%) (amino acid dehydrogenase): 34.6% | enzymatic activity taking the enzymatic activity for phenylpyruvic acid to be 100 [1]: 9

CC(C)CC(=O)C(=O)O [2-Oxo-4-methylvaleric acid]
Relative activity (%) (amino acid dehydrogenase): 3.5%

O=C(O)C(=O)Cc1ccc(O)cc1 [4-Hydroxyphenylpyruvic acid]
enzymatic activity taking the enzymatic activity for phenylpyruvic acid to be 100 [2]: 5 | Relative activity (%) (amino acid dehydrogenase): 96.3% | enzymatic activity taking the enzymatic activity for phenylpyruvic acid to be 100 [3]: 0

O=C(O)C(=O)CCc1ccccc1 [Homophenylpyruvic acid]
Relative activity (%) (amino acid dehydrogenase): 19.1% | enzymatic activity taking the enzymatic activity for phenylpyruvic acid to be 100 [4]: 3.4 | enzymatic activity taking the enzymatic activity for phenylpyruvic acid to be 100 [5]: 0.1

O=C(O)C(=O)Cc1c[nH]c2ccccc12 [Indolepyruvic acid]
enzymatic activity taking the enzymatic activity for phenylpyruvic acid to be 100 [2]: 3 | Relative activity (%) (amino acid dehydrogenase): 19.7% | enzymatic activity taking the enzymatic activity for phenylpyruvic acid to be 100 [4]: 0.39 | enzymatic activity taking the enzymatic activity for phenylpyruvic acid to be 100 [1]: 5 | enzymatic activity taking the enzymatic activity for phenylpyruvic acid to be 100 [6]: 0.73

O=C(O)C(=O)Cc1ccccc1 [Phenylpyruvic acid]
Relative activity (%) (amino acid dehydrogenase): 100.0%

Naphthylpyruvic acid
Relative activity (%) (amino acid dehydrogenase): 38.8% | enzymatic activity taking the enzymatic activity for phenylpyruvic acid to be 100 [4]: 0.46
